Earlier results as cited in paper PMC9851200, “Multiparameter phenotypic screening for endogenous TFEB and TFE3 translocation identifies novel chemical series modulating lysosome function” (Autophagy, 2022).

How the values were obtained:
Design in all cases: method as in original PKIS2 published data
[1] = target: T1, kinases (KINOMEscan panel) (Homo sapiens, UniProt P15735); conditions: kinase PHKG2; Published KINOMEscan; ref original PKIS2 published data; cited from earlier work
T1 sequence (P15735 1-406): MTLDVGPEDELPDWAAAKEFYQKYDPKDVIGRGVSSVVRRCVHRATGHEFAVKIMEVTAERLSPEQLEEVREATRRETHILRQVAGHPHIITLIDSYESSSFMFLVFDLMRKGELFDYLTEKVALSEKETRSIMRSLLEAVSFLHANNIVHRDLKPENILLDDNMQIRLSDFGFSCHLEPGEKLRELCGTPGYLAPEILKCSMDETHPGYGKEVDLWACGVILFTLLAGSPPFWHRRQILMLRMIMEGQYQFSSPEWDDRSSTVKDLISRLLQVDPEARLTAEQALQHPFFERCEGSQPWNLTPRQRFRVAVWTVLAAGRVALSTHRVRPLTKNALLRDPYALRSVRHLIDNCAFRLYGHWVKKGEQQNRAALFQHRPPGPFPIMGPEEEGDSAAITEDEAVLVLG

[2] = target: T2, kinases (KINOMEscan panel) (Homo sapiens, UniProt Q96PN8); conditions: kinase TSSK3; Published KINOMEscan; ref original PKIS2 published data; cited from earlier work
T2 sequence (Q96PN8 1-268): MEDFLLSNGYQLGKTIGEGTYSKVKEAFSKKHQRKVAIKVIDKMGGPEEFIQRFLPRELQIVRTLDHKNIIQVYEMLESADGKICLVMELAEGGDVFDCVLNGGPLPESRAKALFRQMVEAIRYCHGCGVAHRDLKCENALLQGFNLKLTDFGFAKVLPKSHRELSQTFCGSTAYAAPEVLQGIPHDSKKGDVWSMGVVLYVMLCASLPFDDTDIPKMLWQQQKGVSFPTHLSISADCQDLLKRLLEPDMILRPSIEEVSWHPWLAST

[3] = target: kinases (KINOMEscan panel) (Homo sapiens, UniProt P49760); conditions: kinase CLK2; Published KINOMEscan; ref original PKIS2 published data; cited from earlier work
kinases (KINOMEscan panel) (Homo sapiens, UniProt P49760), sequence (P49760 whole entry): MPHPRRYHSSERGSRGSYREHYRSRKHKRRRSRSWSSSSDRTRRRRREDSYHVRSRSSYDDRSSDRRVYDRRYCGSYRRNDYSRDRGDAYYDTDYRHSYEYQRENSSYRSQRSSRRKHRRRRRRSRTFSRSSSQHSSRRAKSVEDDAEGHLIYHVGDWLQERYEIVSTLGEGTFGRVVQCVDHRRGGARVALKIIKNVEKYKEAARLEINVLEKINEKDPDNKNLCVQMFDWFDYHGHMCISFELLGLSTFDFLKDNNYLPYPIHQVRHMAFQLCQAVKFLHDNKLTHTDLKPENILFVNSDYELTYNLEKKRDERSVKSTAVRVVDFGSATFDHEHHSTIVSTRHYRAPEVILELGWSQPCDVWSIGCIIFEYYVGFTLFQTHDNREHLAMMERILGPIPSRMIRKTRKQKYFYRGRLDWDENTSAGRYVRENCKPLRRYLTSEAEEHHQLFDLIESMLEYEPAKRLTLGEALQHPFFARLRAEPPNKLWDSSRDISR

[4] = target: kinases (KINOMEscan panel) (Homo sapiens, UniProt Q13233); conditions: MAP3K1; Published KINOMEscan; ref original PKIS2 published data; cited from earlier work
kinases (KINOMEscan panel) (Homo sapiens, UniProt Q13233), sequence (Q13233 whole entry): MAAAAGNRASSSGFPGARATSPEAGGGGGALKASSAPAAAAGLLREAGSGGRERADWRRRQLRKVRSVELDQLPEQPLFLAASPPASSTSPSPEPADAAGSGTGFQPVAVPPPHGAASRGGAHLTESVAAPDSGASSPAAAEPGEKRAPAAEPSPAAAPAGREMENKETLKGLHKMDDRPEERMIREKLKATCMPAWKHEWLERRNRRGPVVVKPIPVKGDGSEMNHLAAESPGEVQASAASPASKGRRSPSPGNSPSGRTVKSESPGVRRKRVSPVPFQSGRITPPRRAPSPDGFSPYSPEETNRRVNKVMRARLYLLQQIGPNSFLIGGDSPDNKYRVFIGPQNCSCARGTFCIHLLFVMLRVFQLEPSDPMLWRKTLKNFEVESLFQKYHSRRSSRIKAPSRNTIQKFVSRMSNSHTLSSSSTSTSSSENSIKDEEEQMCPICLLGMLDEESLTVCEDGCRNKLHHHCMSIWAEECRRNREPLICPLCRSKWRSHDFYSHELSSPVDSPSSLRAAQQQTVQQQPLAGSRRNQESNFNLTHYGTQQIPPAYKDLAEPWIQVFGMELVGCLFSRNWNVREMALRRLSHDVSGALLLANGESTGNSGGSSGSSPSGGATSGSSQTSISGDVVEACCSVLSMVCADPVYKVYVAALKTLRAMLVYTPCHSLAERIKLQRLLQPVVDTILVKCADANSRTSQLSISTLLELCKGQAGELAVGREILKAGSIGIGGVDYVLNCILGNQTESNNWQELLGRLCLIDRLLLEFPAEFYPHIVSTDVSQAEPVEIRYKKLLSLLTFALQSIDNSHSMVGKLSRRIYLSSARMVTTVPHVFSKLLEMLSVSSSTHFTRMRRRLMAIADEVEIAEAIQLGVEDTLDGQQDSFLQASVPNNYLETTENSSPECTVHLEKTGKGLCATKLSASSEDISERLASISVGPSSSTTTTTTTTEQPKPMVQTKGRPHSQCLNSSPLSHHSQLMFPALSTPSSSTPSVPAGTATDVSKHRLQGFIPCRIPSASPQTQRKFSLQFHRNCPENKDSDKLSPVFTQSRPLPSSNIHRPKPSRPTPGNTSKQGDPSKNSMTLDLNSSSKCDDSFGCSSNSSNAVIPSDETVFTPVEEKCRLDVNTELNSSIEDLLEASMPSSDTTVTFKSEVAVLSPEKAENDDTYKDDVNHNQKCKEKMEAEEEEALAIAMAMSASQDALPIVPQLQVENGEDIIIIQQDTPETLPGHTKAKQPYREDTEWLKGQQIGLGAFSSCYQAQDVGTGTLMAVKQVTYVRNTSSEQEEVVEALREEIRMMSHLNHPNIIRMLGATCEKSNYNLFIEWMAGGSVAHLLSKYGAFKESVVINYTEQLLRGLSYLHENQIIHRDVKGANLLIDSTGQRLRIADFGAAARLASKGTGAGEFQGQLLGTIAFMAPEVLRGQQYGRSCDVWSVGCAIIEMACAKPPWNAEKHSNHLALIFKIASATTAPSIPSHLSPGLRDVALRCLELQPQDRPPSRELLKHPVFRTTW

[5] = target: kinases (KINOMEscan panel) (Homo sapiens, UniProt Q9P0L2); conditions: Published KINOMEscan; ref original PKIS2 published data; cited from earlier work
kinases (KINOMEscan panel) (Homo sapiens, UniProt Q9P0L2), sequence (Q9P0L2 whole entry): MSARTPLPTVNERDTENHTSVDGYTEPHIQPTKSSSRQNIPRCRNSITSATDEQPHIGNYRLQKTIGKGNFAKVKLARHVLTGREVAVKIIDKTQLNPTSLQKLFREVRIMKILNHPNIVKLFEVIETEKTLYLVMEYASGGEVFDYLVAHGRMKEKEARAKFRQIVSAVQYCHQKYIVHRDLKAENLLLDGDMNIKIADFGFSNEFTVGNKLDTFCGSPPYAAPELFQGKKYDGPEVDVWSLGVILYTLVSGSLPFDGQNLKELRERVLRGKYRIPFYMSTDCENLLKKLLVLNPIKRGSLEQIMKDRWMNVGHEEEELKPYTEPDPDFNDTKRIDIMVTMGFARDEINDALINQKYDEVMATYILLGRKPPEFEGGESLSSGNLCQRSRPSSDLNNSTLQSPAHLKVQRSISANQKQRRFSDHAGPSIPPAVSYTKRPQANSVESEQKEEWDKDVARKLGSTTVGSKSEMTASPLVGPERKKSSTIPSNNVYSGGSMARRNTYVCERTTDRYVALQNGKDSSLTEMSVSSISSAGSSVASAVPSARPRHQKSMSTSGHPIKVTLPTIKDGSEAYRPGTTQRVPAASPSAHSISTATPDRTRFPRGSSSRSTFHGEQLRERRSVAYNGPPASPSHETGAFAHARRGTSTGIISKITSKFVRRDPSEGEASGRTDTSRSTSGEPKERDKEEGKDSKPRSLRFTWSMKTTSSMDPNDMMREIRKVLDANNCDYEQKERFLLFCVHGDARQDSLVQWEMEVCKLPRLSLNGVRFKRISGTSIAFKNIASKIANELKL

[6] = target: T3, kinases (KINOMEscan panel) (Homo sapiens, UniProt Q92772); conditions: CDKL2; Published KINOMEscan; ref original PKIS2 published data; cited from earlier work
T3 sequence (Q92772 1-493): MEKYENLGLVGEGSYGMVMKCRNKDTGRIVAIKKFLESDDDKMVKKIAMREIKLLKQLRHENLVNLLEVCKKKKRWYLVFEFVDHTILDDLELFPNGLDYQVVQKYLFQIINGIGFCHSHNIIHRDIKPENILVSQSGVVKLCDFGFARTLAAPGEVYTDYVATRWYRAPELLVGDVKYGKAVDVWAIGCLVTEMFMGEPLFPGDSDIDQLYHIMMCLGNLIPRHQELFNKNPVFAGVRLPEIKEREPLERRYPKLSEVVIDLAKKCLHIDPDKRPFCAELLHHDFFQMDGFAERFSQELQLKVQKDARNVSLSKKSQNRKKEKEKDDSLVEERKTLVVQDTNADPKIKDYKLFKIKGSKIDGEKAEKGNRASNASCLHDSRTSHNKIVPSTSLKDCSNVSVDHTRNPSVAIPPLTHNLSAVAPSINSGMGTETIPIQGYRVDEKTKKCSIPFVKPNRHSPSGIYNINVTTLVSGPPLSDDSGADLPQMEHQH

[7] = target: kinases (KINOMEscan panel) (Homo sapiens, UniProt Q9BWU1); conditions: kinase CDK19; Published KINOMEscan; ref original PKIS2 published data; cited from earlier work
kinases (KINOMEscan panel) (Homo sapiens, UniProt Q9BWU1), sequence (Q9BWU1 whole entry): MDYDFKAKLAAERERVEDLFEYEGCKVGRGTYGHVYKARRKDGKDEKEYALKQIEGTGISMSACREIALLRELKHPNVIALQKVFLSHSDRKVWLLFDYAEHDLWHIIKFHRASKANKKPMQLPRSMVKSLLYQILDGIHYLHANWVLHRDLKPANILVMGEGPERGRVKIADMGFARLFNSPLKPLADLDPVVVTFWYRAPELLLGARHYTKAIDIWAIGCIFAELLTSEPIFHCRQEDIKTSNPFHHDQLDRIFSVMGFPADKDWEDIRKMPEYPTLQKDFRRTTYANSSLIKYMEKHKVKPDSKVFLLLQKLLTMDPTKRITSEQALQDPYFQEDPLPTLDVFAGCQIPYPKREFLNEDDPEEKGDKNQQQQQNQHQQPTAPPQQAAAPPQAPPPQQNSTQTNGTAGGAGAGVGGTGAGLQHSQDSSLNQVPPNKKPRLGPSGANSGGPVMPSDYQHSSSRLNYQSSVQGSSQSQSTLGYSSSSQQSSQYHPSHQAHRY

## Cc1cccc(-c2nc(Nc3ccncc3)c3ccccc3n2)n1 [NK215]
[1]
  KINOMEscan PHKG2: 3
[2]
  KINOMEscan TSSK3: 0
[3]
  KINOMEscan CLK2: 8
[4]
  KINOMEscan MAP3K1: 0
[5]
  KINOMEscan MARK1: 0
[6]
  KINOMEscan CDKL2: 10
[7]
  KINOMEscan CDK19: 0
